What all share (assay type): biochemical
Test [1] addresses T1, Papain (Carica papaya, UniProt P00784).
T1 sequence (P00784 134-345): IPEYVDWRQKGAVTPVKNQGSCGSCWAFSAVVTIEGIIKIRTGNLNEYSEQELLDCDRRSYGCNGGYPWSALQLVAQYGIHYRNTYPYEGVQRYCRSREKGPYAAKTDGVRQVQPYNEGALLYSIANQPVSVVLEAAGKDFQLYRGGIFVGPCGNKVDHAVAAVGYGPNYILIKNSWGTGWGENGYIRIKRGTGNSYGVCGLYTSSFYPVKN
The experiment in a line: Hydrolysis of oxyamide and thioneamide substrates by papain (catalytic constants, Table I). The conditions noted are these: pH 6.5, thiol buffer (52 mM NaH2PO4, 31 mM dithiothreitol, 2.1 mM EDTA), 12.5% DMSO. The protocol: (§1) Table I below provides a comparison between hydrolysis rates of trypsin and papain acting on two different oxyamides and on their corresponding thioneamides. Trypsin was used at pH 7.5 in a Tris buffer (50 mM), with 10 mM CaCl2, and 12.5% DMSO. Papain was used at pH 6.5 in a thiol buffer (52 mM NaH2 PO4, 31 mM dithiothreitol, 2.1 mM EDTA) and 12.5% DMSO. Table I lists the catalytic constants kcat (moles product formed per second per mole enzyme), KM (M), and kcat /KM (M^-1 sec^-1) for the indicated substrates.

For test [2], the system named is Trypsin. The experiment in a line: Hydrolysis of oxyamide and thioneamide substrates by trypsin (catalytic constants, Table I). The conditions noted are these: pH 7.5, Tris buffer (50 mM), 10 mM CaCl2, 12.5% DMSO. The protocol: as §1
Test [3] addresses T1, Papain. The experiment in a line: Selective detection assay, rate of AIE formation with papain alone (Table II). The conditions noted are these: Papain 6.85×10^-6 M; thiol buffer pH 6.5, 2.5% DMSO; substrate 2.46×10^-4 M (Cbz-Lys-AIE) or 2.53×10^-4 M (Cbz-Lys.PSI.[CS]-AIE). The protocol:
(§2) A thiol buffer at pH 6.5 was used (52 mM NaH2 PO4, 31 mM dithiothreitol, 2.1 mM EDTA) with 2.5% DMSO. The enzyme concentrations in the assays were 6.85×10^-6 M for papain, and 1.28×10^-6 M for trypsin. Substrate concentrations were 2.46×10^-4 M for Cbz-Lys-AIE, and 2.53×10^-4 M for Cbz-Lys.PSI.[CS]-AIE. Rates are given in terms of moles AIE formed per minute.

Test [4] deals with Trypsin. The experiment in a line: Selective detection assay, rate of AIE formation with trypsin alone (Table II). The conditions noted are these: Trypsin 1.28×10^-6 M; thiol buffer pH 6.5, 2.5% DMSO; substrate 2.46×10^-4 M (Cbz-Lys-AIE) or 2.53×10^-4 M (Cbz-Lys.PSI.[CS]-AIE). The protocol: as §2

Experimental findings from patent US4771123A, “Peptide thioneamides as selective substrates for cysteine proteases” (Enzyme Systems Products, Inc., priority 1986, dated 1988) are described below.

One may read the Km as the concentration of substrate that gives half-maximal velocity. For the compound `COC(=O)c1cc(NC(=O)[C@H](CCCCN)NC(=O)OCc2ccccc2)cc(C(=O)OC)c1` [Cbz--Lys--AIE, Cbz-Lys-AIE], in test [1], the Km was 281 µM, the kcat was 2.95 × 10^-2 moles product formed per secon and the “kcat /KM” value worked out at 105 M⁻¹ s⁻¹. Also, in test [2], the Km amounted to 168 µM, the kcat is on record as 1.15 × 10^-1 moles product formed per secon and the “kcat /KM” value came to 686 M⁻¹ s⁻¹. Moreover, in test [3], the “Rate of AIE formation” value was 6.03 moles AIE formed per minute.
`Br.COC(=O)c1cc(NC(=S)[C@H](CCCNC(=N)N)NC(=O)[C@H](Cc2ccccc2)NC(=O)OCc2ccccc2)cc(C(=O)OC)c1` [Cbz--Phe--Arg.psi.[CS]--AIE, Cbz-Phe-Arg.PSI.[CS]-AIE.HBr]: in test [1], the Km came out at 574 µM, the kcat is on record as 5.35 moles product formed per secon and the “kcat /KM” value was 0.0932 M⁻¹ s⁻¹. Moreover, in test [2], the “rate of product formation by trypsin (in words)” value is reported as “NO RATE”.
As for Cbz--Phe--Arg--AIE, in test [1], the Km worked out at 813 µM, the kcat is listed as 3.53 × 10^1 moles product formed per secon and the “kcat /KM” value was determined as 43500 M⁻¹ s⁻¹. Further, in test [2], the Km stood at 502 µM, the kcat is on record as 9.03 × 10^-1 moles product formed per secon and the “kcat /KM” value was found to be 1800 M⁻¹ s⁻¹.
Regarding “Cbz-Lys.PSI.[CS]-AIE.HCl [Cbz--Lys.psi.[CS]--AIE]”, the “Rate of AIE formation” value in test [4] is on record as 0.00 moles AIE formed per minute. Besides, in test [1], the Km worked out at 213 µM, the kcat was 4.00 × 10^-3 moles product formed per secon and the “kcat /KM” value came to 18.8 M⁻¹ s⁻¹. Also, in test [2], the “rate of product formation by trypsin (in words)” value is given as “NO RATE”. Further, the “Rate of AIE formation” value in test [3] is recorded as 1.15 moles AIE formed per minute.
